Here are results for 12 molecules from PubChem BioAssay (NCI).

What all share (test): NCI anticancer screen, dose series, 48 h
In assay [1] the test system is HS 578T breast.
The subject of assay [2] is MALME-3M melanoma.
For assay [3], the system named is KM12 colon.
Assay [4] relates to SR leukemia.
The subject of assay [5] is EKVX NSCLC.
Assay [6] deals with SK-MEL-2 melanoma.
Assay [7] deals with RPMI-8226 leukemia.
Assay [8] deals with DMS 273 small cell lung.
For assay [9], the system named is DMS 114 small cell lung.

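All cell lines were grown in 96-well plates and treated with compound for 48 hours. Abbreviation: GI50, concentration required for 50% inhibition of growth. TGI denotes the concentration required for complete inhibition of growth.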

For the molecule `CSc1nc2cc(S(=O)(=O)N3CCCCC3)ccc2s1`, the TGI in assay [1], in [2], in assay [3], in [4], in [5] and in assay [6] was above 100 µM each time. The same molecule gave a TGI in [7] above 100 µM.

Turning to `O=C1NC2OCC(O)C(O)C2O1` (centres undefined), the TGI in assay [2], in assay [3], in assay [8], in [9], in assay [4] and in [5] was above 100 µM throughout. Besides, the TGI in [6] was above 100 µM.

As for `COc1cc2c3c(n(CCCCOC(=O)C(Cl)(Cl)Cl)c(=O)c2cc1OC)-c1cc2c(cc1C3=O)OCO2`, the GI50 in [1] was 94.7 µM; in [2] it was above 100 µM; in assay [3] it was above 100 µM; in [4] it was 1.14 µM; in assay [5], above 100 µM; in assay [6], above 100 µM. Further, the GI50 in [7] is above 100 µM. Moreover, the TGI is above 100 µM in assay [1]; above 100 µM in assay [2]; above 100 µM in [3]; 15 µM in assay [4]; above 100 µM in assay [5]; above 100 µM in assay [6]. This molecule displayed a TGI in assay [7] above 100 µM.

Regarding `CC1=N/C(=C\c2cccc([N+](=O)[O-])c2)C(=O)O1`, the TGI in [2], in assay [3], in assay [9], in [5], in [6] and in assay [7] was above 100 µM each time.

Consider `COC(=O)c1c(C)[nH]c(/C=C2\N=C(c3ccc[nH]3)C=C2OC)c1C`, for which the GI50 in [1] was 0.693 µM; in assay [2], 0.525 µM; in assay [3], 0.0938 µM; in assay [4], 0.0947 µM; in assay [5], 1.07 µM; in assay [6] it was 0.328 µM. The GI50 in assay [7] is 0.856 µM. For the same molecule, the TGI in assay [2] worked out at 2.02 µM; in assay [3] it was 5.67 µM; in [4], 0.679 µM; in [5] it was 3.28 µM; in assay [6], 1.27 µM; in [7], 4.98 µM.

For `C/C=C(\C)CC/C=C/CO[Si](C)(C)C(C)(C)C`, the TGI is above 100 µM in [1]; above 100 µM in assay [2]; above 100 µM in assay [3]; 56.3 µM in assay [4]; above 100 µM in assay [5]; above 100 µM in assay [6]. For the same molecule, in assay [7], the TGI was above 100 µM.

Regarding `Fc1ccc(-c2nn3ncccc3c2-c2ccnc(Nc3ccc4c(c3)OCCO4)n2)cc1`, the GI50 in [1] is 2.15 µM; in assay [2], 14.1 µM; in [3] it was 5.32 µM; in [4], 5.74 µM; in assay [5], 2.16 µM; in assay [6], 4.45 µM. Besides, the GI50 in assay [7] was 7.85 µM. Also, the TGI in assay [1] is above 23.2 µM; in [2], above 25 µM; in [3], 19.8 µM; in [4], above 23.2 µM; in [5], above 25 µM; in [6], 9.71 µM. Besides, the TGI in assay [7] is above 25 µM.

For the molecule `COC(=O)C12C3C4C1C1C2C3C41NC(=O)c1csc([C@@H](C[C@H](C(C)C)N(C)C(=O)[C@@H](NC(=O)[C@H]2CCCCN2C)C2CC2)OC(C)=O)n1` (some centres undefined), the GI50 is 0.00773 µM in assay [1]; 0.0581 µM in assay [2]; 0.00818 µM in assay [3]; below 0.00333 µM in assay [4]; 0.08 µM in assay [5]; 0.11 µM in assay [6]. Further, the GI50 in [7] is 0.00696 µM. Further, the TGI in [1], in [2], in [3], in assay [4], in [5] and in [6] was above 33.3 µM in each case. This molecule also had a TGI in [7] above 33.3 µM.

Turning to `CC[C@H](C)[C@H]1O[C@]2(C=C[C@@H]1C)C[C@@H]1C[C@@H](C/C=C(\C)[C@@H](O[C@H]3C[C@H](OC)[C@@H](O[C@H]4C[C@H](OC)[C@@H](NC)[C@H](C)O4)[C@H](C)O3)[C@@H](C)/C=C/C=C3\CO[C@@H]4[C@H](O)C(C)=C[C@@H](C(=O)O1)[C@]34O)O2`, the GI50 in [1] was 2.31 µM; in [2] it was 1.85 µM; in [3], 3.1 µM; in assay [4], 1.49 µM; in assay [5], 2.13 µM; in assay [6] it was 2.54 µM. For the same molecule, in [7], the GI50 is 3.32 µM. Moreover, the TGI in [1] stood at 6.56 µM; in assay [2] it was 3.69 µM; in assay [3], 11.4 µM; in [4], 4.17 µM; in [5], 6.51 µM; in assay [6], 7.07 µM. The molecule also yielded a TGI in assay [7] of 13.6 µM.

On to `CC(C)(C)c1ccc(O)c(CN(Cc2cc(C(C)(C)C)ccc2O)c2ccccc2)c1`, for which the TGI was 42 µM in assay [1]; 29.9 µM in [2]; 66.7 µM in assay [3]; 38.1 µM in assay [4]; 37.1 µM in assay [5]; 33.3 µM in assay [6]. The molecule also registered a TGI in assay [7] of 47.7 µM.

Turning to `CNc1nc(N)c(N=O)c(Nc2ccc(Br)cc2)n1`, the TGI in assay [1] is 65 µM; in assay [2], above 100 µM; in assay [3], above 100 µM; in assay [4], above 100 µM; in assay [5] it was above 100 µM; in [6], above 100 µM. The same molecule had a TGI in assay [7] above 100 µM.

For `O=C(/C=C\n1cnc(-c2cc(C(F)(F)F)cc(C(F)(F)F)c2)n1)NNc1cnccn1`, the GI50 is 0.231 µM in assay [1]; 0.135 µM in assay [2]; 0.492 µM in assay [3]; 0.0362 µM in [4]; 0.0853 µM in assay [5]; 0.0729 µM in [6]. In assay [7], the GI50 is 0.0449 µM. Besides, the TGI in assay [1] was 25.7 µM; in [2] it was 10.5 µM; in assay [3], 17 µM; in [4], above 100 µM; in [5], 14.5 µM; in assay [6], 2.84 µM. The TGI in assay [7] is above 47.3 µM.
